In patent US20040132188A1, “Use of non-complexing peptides for the preparation of a composition for transfection of a polynucleotide into a cell and compositions useful in gene therapy” (priority 2001, published 2004):
“Also recorded” adds a separate entry of the source. Square brackets hold non-standard residues; d marks the D form. Ends that are not written are not given here.

Columns and labels:
[1] = Liposome leakage assay, POPC/cholesterol 3:2 liposomes; assay type: biochemical; conditions: for liposome leakage activity / calcein release: POPC/chol liposomes, pH 7
Excerpt: FIG. 9: Liposome leakage assay. […] Emitted fluorescence was plotted against peptide concentration. […] C) Comparison of ppTG1, ppTG20 and ppTG21 at pH 7.
Leakage activity was plotted against peptide concentration.

[2] = test system: HeLa cells; experiment: Transfection in vitro, luciferase plasmid pTG11236; assay type: cell-based; conditions: for transfection / gene transfer efficiency in vitro: 50 ng pTG11236, increasing amounts of peptide, day 1
Protocol: Cells were plated on 24 well plates at a density of 4×10^4 (293-EBNA ) or 7×10^4 (HeLa, Renca) cells/well in DMEM supplemented with 10% FCS. The next day, the medium was replaced by 200 μl serum-free DMEM and plasmid (PTG11056 or pTG11236)/peptide complexes or plasmid/peptide/lipid complexes were prepared in 30 μl 0.9% NaCl or 5% glucose. After 20 min at room temperature these complexes were added to the cells which were then incubated for 2-3 h at 37° C. and 5% CO2 before 1 ml serum-containing DMEM was added. Approximately 20 hours later, cells were lysed by addition of 100 μl 1× Promega lysis buffer, 20 μl of the lysates were analysed for luciferase activity. Proteins were quantified with the bicinchonic acid (BCA) colorimetric method (Smith, Anal. Biochem. 150 (1985), 76-85). […]
HeLa cells were seeded at a density of 6×10^4 cells on 24 well plates. The next day, cells were incubated with 200 μl serum-free medium, 30 μl of plasmid (50 ng)/peptide/lipid mixtures were added and incubated for 3 h at 37° C. in 5% CO2. 1 ml of DMEM+10% FCS was then added. The next day, the medium was removed and cells were washed with 500 μl of PBS and subsequently treated with 100 μl of Promega lysis buffer. Plates were stored at −80° C. until luciferase activity was measured of 20 μl of the cell lysate. The protein assay was performed using the Pierce BCA kit.
JTS1 was dissolved to 1 mg/ml in 1 mM NaOH and mixed with DNA diluted in 5% glucose. ppTG1 was then added to this solution. The pcTG90/DOPE ppTG1 mixtures were prepared as described in Example 6. Transfection assays were performed on HeLa cells with 50 ng of plasmid as described in Example 6.
The series of ppTG1 derivatives listed in Material and Methods were tested for their gene transfer efficiencies in Hela cells. 6×10^4 cells were transfected with 50 ng pTG11236 complexed with increasing amounts of peptide. Luciferase activity was analyzed day 1 after transfection. The results are shown in FIG. 10B (ppTG20, ppTG21), FIG. 10C (ppTG25, ppTG26, ppTG27), FIG. 10D (ppTG28 to ppTG33), FIG. 10E (PEG-ppTG1 and PEG-ppTG20), FIG. 10F (ppTG22 to ppTG24) and FIG. 10G (ppTG20-D).

[3] = pH 5 versus pH 7; cited from earlier work
[4] = Liposome leakage assay, POPC/cholesterol 3:2 liposomes; assay type: biochemical; conditions: POPC/chol liposomes, pH 5
[5] = test system: plasmid pTG11236; experiment: Gel retardation assay (DNA binding activity)
Protocol: 3 μg of the plasmid pTG11236 were incubated with increasing amounts of the respective peptide in a final volume of 30 μl with 0.9% NaCl. After 20 min of incubation at room temperature, 6 μl 5× loading buffer (glycerol and bromphenol blue in TAE buffer) were added and 10 μl of these solutions were analyzed on a 1% agarose gel in the presence of ethidium bromide.
The ability of ppTG1 peptide to complex DNA was analyzed by gel retardation assays. […] After 20 minutes incubation at room temperature, loading buffer was added and 10 μl of the resulting solution were analyzed on a 1% agarose gel.
ppTG1 derivatives as they are indicated in Materials and Methods, were tested for their capacity to bind plasmid DNA by gel retardation assays.

[6] = test system: B6SJL mice, lungs; experiment: In vivo gene transfer after intravenous injection, luciferase activity in the lungs; conditions: pTG11236/peptide complexes intravenously injected; for gene transfer efficiency in the lung: luciferase day 1
Protocol: Mice were sacrificed at day 1.
Lungs were tested for luciferase activity.

[7] = test system: RENCA tumors; experiment: In vivo gene transfer after intratumoral injection, luciferase activity in tumors; parameters: species or system B6D2 mice; conditions: 10 μg pTG11236, peptide at pH 8, intratumoral, day 1
Protocol: 4×10^5 RENCA cells (murine kidney tumor cells, ATCC) were injected subcutaneously into B6D2 mice to provoke tumor growth. When tumors reached a size of approximatively 30 mm^3, 30 μl of a 5% glucose solution, containing the luciferase expression plasmid DNA pTG11236 in presence or absence of peptide of the present invention were injected into the tumors. Mice were sacrificed at day 1 after injection, tumors were recovered and homogeinized. Luciferase activity was analyzed and expressed as RLU/g tumor.
The peptide ppTG21 was tested for its capacity to enhance plasmid transfer after intratumoral injection in RENCA tumor-bearing mice. Ten μg of the luciferase expression plasmid pTG11236 were mixed with increasing amounts (i.e. 0.1, 0.6, 3 or 15 micrograms) of ppTG21 at pH 8 (10 mM Tris pH 8). […] In paralell, experiments have been conducted in identical conditions by administering the same plasmid DNA in the presence of increasing amounts (i.e. 0.1%, 0.2%, 0.4% and 0.6 %) of HPC (Hexadecyl-phospho-choline). Plasmid DNA alone, or plasmid DNA in the presence of HPC or ppTG21 were intratumorally injected in similar conditions. Next day, luciferase activities in the tumors was determined (RLU/g tumour).

[8] = 50 ng pTG11236 complexed with 0.9 μg ppTG1 and 0.1 μg JTS1, final charge ratio 5

CGLFKALLKLLKSLWKLLLKA
liposome leakage activity / calcein release [1]: slightly reduced

CGLFKALLKLLKSLWKLLLKAC (cysteine pairing not given here)
liposome leakage activity / calcein release [1]: slightly reduced

GIFKAIIKIIKSIWKIIIKA
transfection / gene transfer efficiency in vitro ([2]; HeLa cells): diminished; also recorded: reduced

GIFRAIIRIIRSIWRIIIRA
transfection / gene transfer efficiency in vitro ([2]; HeLa cells): diminished; also recorded: reduced
liposome leakage activity / calcein release [1]: slightly reduced

GLFEALLELLESLWELLLEA [reference compound]
lysing of calcein containing phosphatidylcholine liposomes [3]: more efficiently than at a pH 7
increase of luciferase activity versus best formulation of ppTG1/pcTG90/DOPE [2, 8]: about 10 factor
increase of luciferase activity versus pcTG90/DOPE alone [2, 8]: about 1000 factor
liposome leakage activity / calcein release [1]: reduced
liposome leakage activity / calcein release [4]: high lysis activity

GLFEALLELLESLWELLLEACCYKAKKKKKKKKWKKKKQS (cysteine pairing not given here) [reference compound]
retardation of pTG11236 ([5]; 3 μg (0.6 nmol) peptide, 3 μg pTG11236): > 95%
gene transfer efficiency in the lung [6]: low
transfection ([2]; 0.05 μg plasmid DNA): remains low
liposome leakage activity / calcein release [1]: impeded in calcein release
liposome leakage activity / calcein release [4]: low level release

GLFHALLHLLHSLWHLLLHA
binding to plasmid DNA ([5]; pH 5): binds plasmid DNA; also recorded: can bind DNA
binding to plasmid DNA ([5]; pH 8): not capable to bind to plasmid DNA
transfection / gene transfer efficiency in vitro ([2]; HeLa cells): strongly reduced
gene expression (luciferase) in tumors after co-injection with plasmid [7]: increase of apparent gene expression; also recorded: dramatic improvement of the nucleic acid transfer efficiency
liposome leakage activity / calcein release [1]: comparable to ppTG1

GLFKKLLKLLKKLWKLLLKA
transfection / gene transfer efficiency in vitro ([2]; HeLa cells): comparable to ppTG1 and ppTG20; also recorded: did not change
liposome leakage activity / calcein release [1]: comparable to ppTG1 and ppTG20; also recorded: slightly reduced

GLFRALLRLLRSLWRLLLRA [ppTG20]
toxicity [6]: less toxic than ppTG1

GLFRRLLRLLRRLWRLLLRA
transfection / gene transfer efficiency in vitro ([2]; HeLa cells): comparable to ppTG1 and ppTG20; also recorded: did not change
liposome leakage activity / calcein release [1]: comparable to ppTG1 and ppTG20; also recorded: slightly reduced

GVFKAVVKVVKSVWKVVVKA
gene transfer efficiency in the lung [6]: drastically reduced; also recorded: did not lead to detectable reporter gene expression
transfection / gene transfer efficiency in vitro ([2]; HeLa cells): diminished
liposome leakage activity / calcein release [1]: diminished; also recorded: significantly reduced

GVFRAVVRVVRSVWRVVVRA
transfection / gene transfer efficiency in vitro ([2]; HeLa cells): diminished
liposome leakage activity / calcein release [1]: diminished; also recorded: significantly reduced

Gly-Leu-Phe-Arg-Ala-Leu-Leu-Arg-Leu-Leu-Arg-Ser-Leu-Trp-Arg-Leu-Leu-Leu-Arg-Ala (G[dL][dF][dR][dA][dL][dL][dR][dL][dL][dR][dS][dL][dW][dR][dL][dL][dL][dR][dA]) [ppTG20-D]
gene transfer efficiency in the lung [6]: even higher than with ppTG1; also recorded: even more efficient than ppTG20
transfection / gene transfer efficiency in vitro ([2]; HeLa cells): retained; also recorded: as efficient as ppTG1
liposome leakage activity / calcein release [1]: retained

WEAKLAKALAKALAKHLAKALAKALKACEA [reference compound]
gene transfer efficiency in the lung [6]: undetectable; also recorded: inefficient
gene transfer at optimal charge ratio lower than for ppTG1 ([2]; 50 ng pTG11236): 200 fold
gene transfer at optimal charge ratio lower than for ppTG1 ([2]; 500 ng pTG11236): 4 fold
best (optimal) charge ratio for gene transfer ([2]; HeLa cells, 50 ng and 500 ng pTG11236): 7
liposome leakage activity ([1]; POPC/Chol (3:2) liposomes, pH not separated (compared at pH 5 and pH 7)): no activity; also recorded: could not liberate calcein
